Measurements from patent US20230103554A1, “TNFa SIGNALING [sequence] TUMOR-PROMOTING INFLAMMATION THAT CAN BE TARGETED TO THERAPY” (Baylor College of Medicine, priority 2020, published 2023).

System: murine CD31
Test: Murine CD31 immunofluorescence of xenograft tumors (angiogenesis)
Assay type: in vivo, mouse
Settings: CHLA-255-luc/monocyte tumors
From the text: (FIG. 17A) Tumors recovered from mice in FIG. 16 were snap frozen in OTC media, thin sectioned, and stained for murine CD31 expression (red) and DAPI counterstain (blue). Results shown are representative images from five fields of view (FOVs) per tumor, with five tumors per group. Scale bar 50 μm. (FIG. 17B) Total number of CD31+ regions per FOV with box and whisker plot showing quartiles±range (Ctrl n=15, Etan n=25). (FIG. 17C) Size of each CD31+ area quantified per FOV; shown is median CD31+ area per FOV with box and whisker plot showing quartiles±range (Ctrl n=15, Etan n=25) (FIG. 17D) Longest distance across each CD31+ area (Max Feret distance) per FOV; shown is median distance per FOV with box and whisker plot showing quartiles±range (Ctrl n=15, Etan n=25). (FIG. 17E) Eukaryotic mRNA-seq was performed on tumor samples, and mouse transcripts were excluded from analysis by XenoFilterR program. Differentially regulated genes were identified using two-fold expression difference and adjusted P value<0.05 as cutoffs.
Tumors from in vivo experiments were snap-frozen in OTC Media (Tissue-Tek, VWR) and cryo-sectioned into 5 μm thin sections (Texas Children's Hospital Histology Core, Houston, Tex.). Samples were fixed and permeabilized in ice-cold acetone for 10 minutes at −20 C and blocked in TBS containing 5% normal goat serum (CST) and 1% BSA (Sigma) for 2 hours at RT. Rat anti-mouse CD31 primary antibody (Invitrogen, clone 390) was diluted 1:10 in staining buffer (TBS, 1% NGS, 1% BSA) overnight at 4 C. […] Slides were counterstained with 1 μg/mL DAPI (BD Biosciences) for five minutes and mounted with fluorescence mounting media (Fluoromount G, Invitrogen). […] Images were processed and analyzed using FIJI/ImageJ software (NIH). To quantify CD31+ staining, images were thresholded (default, 1800 MIN, Infinity MAX), converted to binary, and analyzed using the FIJI/ImageJ “Analyze Particle” function excluding regions smaller than 25 μm2. […]

For etanercept, the “vessel formation by CD31 immunofluorescence” value (vs IgG control) was “failed to form distinct vessels”, the “average area of CD31+ regions per FOV” value (vs control) was “significantly smaller” and the “vessel length (maximum linear distance across CD31+ regions)” value (vs control) was “significantly shorter”.
